# From patent publication US20240376163A1, “PEPTIDE FOR INHIBITING CALCINEURIN AND USE THEREOF” (Seoul National University R&DB Foundation, priority 2023, published 2024)
# Test system: Jurkat T cells
# Assay: mRNA sequencing of activated Jurkat T cells
# Assay type: cell-based, human
sequence,measurement,setting,value
PEITVTPPTP [CABIN1-L-1-2],GPR108 FPKM,P+I,37.394 FPKM
same,GPR183 FPKM,P+I,4.735 FPKM
same,GRAP2 FPKM,P+I,11.197 FPKM
same,GRK5 FPKM,P+I,8.975 FPKM
same,GZMH FPKM,P+I,13.893 FPKM
same,HAPLN3 FPKM,P+I,58.345 FPKM
same,HDC FPKM,P+I,23.209 FPKM
same,HHIP FPKM,P+I,6.793 FPKM
same,HHIP-AS1 FPKM,P+I,29.854 FPKM
same,HIVEP2 FPKM,P+I,9.184 FPKM
same,HSP90B1 FPKM,P+I,910.415 FPKM
same,HSP90B2P FPKM,P+I,9.619 FPKM
same,HSPA5 FPKM,P+I,449.173 FPKM
same,ICAM1 FPKM,P+I,12.914 FPKM
same,ID2 FPKM,P+I,15.335 FPKM
same,IER2 FPKM,P+I,126.884 FPKM
same,IER3 FPKM,P+I,26.899 FPKM
same,IFFO2 FPKM,P+I,3.163 FPKM
same,IFIH1 FPKM,P+I,12.37 FPKM
same,IFNG FPKM,P+I,8.858 FPKM
same,IGLL1 FPKM,P+I,3.244 FPKM
same,IGSF9B FPKM,P+I,8.992 FPKM
same,IL2RA FPKM,P+I,10.904 FPKM
same,IL3 FPKM,P+I,6.298 FPKM
same,IL4I1 FPKM,P+I,7.279 FPKM
same,IL16 FPKM,P+I,8.304 FPKM
same,IL22 FPKM,P+I,3.136 FPKM
same,IL23A FPKM,P+I,17.874 FPKM
same,IMPA2 FPKM,P+I,2.882 FPKM
same,IRF8 FPKM,P+I,1.914 FPKM
same,IRF9 FPKM,P+I,39.375 FPKM
same,ISM1 FPKM,P+I,3.737 FPKM
same,JAK3 FPKM,P+I,8.871 FPKM
same,JUN FPKM,P+I,3.58 FPKM
same,JUNB FPKM,P+I,56.126 FPKM
same,KBTBD11 FPKM,P+I,2.772 FPKM
same,KCNK5 FPKM,P+I,4.904 FPKM
same,KCTD11 FPKM,P+I,2.303 FPKM
same,KIAA0922 FPKM,P+I,12.911 FPKM
same,KIF1B FPKM,P+I,13.254 FPKM
same,KIF3B FPKM,P+I,14.583 FPKM
same,KLF2 FPKM,P+I,1.375 FPKM
same,KSR1 FPKM,P+I,5.998 FPKM
same,LAIR2 FPKM,P+I,3.695 FPKM
same,LAMP3 FPKM,P+I,9.828 FPKM
same,LAX1 FPKM,P+I,7.578 FPKM
same,LDLRAP1 FPKM,P+I,0.878 FPKM
same,LIME1 FPKM,P+I,11.879 FPKM
same,LINC00152 FPKM,P+I,31.801 FPKM
same,LINC00426 FPKM,P+I,0.675 FPKM
same,LINC00528 FPKM,P+I,5.927 FPKM
same,LINC00539 FPKM,P+I,2.351 FPKM
same,LINC00977 FPKM,P+I,0.266 FPKM
same,LOC729603 FPKM,P+I,3.329 FPKM
same,LRRC8B FPKM,P+I,4.298 FPKM
same,LRRC45 FPKM,P+I,4.264 FPKM
same,LYPD3 FPKM,P+I,2.662 FPKM
same,MAP2K3 FPKM,P+I,43.237 FPKM
same,MAP2K6 FPKM,P+I,0.955 FPKM
same,MBOAT2 FPKM,P+I,3.202 FPKM
same,MCM4 FPKM,P+I,27.291 FPKM
same,MCM5 FPKM,P+I,33.895 FPKM
same,METRNL FPKM,P+I,7.881 FPKM
same,MIR221 FPKM,P+I,10.092 FPKM
same,MIR4435-1HG FPKM,P+I,16.303 FPKM
same,MIR6891 FPKM,P+I,31.815 FPKM
same,MMP10 FPKM,P+I,22.372 FPKM
same,MRPL39 FPKM,P+I,188.834 FPKM
same,MYO1D FPKM,P+I,5.995 FPKM
same,MYO1G FPKM,P+I,65.452 FPKM
same,MYO7B FPKM,P+I,12.661 FPKM
same,NAMPT FPKM,P+I,54.272 FPKM
same,NDFIP1 FPKM,P+I,24.432 FPKM
same,NDFIP2 FPKM,P+I,12.598 FPKM
same,NDST3 FPKM,P+I,5.621 FPKM
same,NEIL3 FPKM,P+I,8.336 FPKM
same,NEXN FPKM,P+I,5.587 FPKM
same,NFE2L3 FPKM,P+I,28.495 FPKM
same,NFKBIA FPKM,P+I,70.837 FPKM
same,NFKBID FPKM,P+I,8.294 FPKM
same,NFKBIE FPKM,P+I,11.793 FPKM
same,NINJ1 FPKM,P+I,54.452 FPKM
same,NKD2 FPKM,P+I,3.105 FPKM
same,NKX3-1 FPKM,P+I,8.412 FPKM
same,NLRC5 FPKM,P+I,37.7 FPKM
same,NPY FPKM,P+I,4.799 FPKM
same,NR4A1 FPKM,P+I,34.85 FPKM
same,NR4A2 FPKM,P+I,0.356 FPKM
same,NRROS FPKM,P+I,26.059 FPKM
same,NT5M FPKM,P+I,1.643 FPKM
same,NXN FPKM,P+I,1.571 FPKM
same,OAS3 FPKM,P+I,18.24 FPKM
same,OSBPL3 FPKM,P+I,23.298 FPKM
same,PARP9 FPKM,P+I,84.386 FPKM
same,PARP14 FPKM,P+I,72.911 FPKM
same,PCBP3 FPKM,P+I,4.642 FPKM
same,PDE3B FPKM,P+I,5.194 FPKM
same,PEAK1 FPKM,P+I,9.633 FPKM
same,PELI1 FPKM,P+I,8.465 FPKM
same,PHEX FPKM,P+I,0.786 FPKM
same,PHF7 FPKM,P+I,3.075 FPKM
same,PHLDA1 FPKM,P+I,52.893 FPKM
same,PIDD1 FPKM,P+I,4.471 FPKM
same,PIM3 FPKM,P+I,72.895 FPKM
same,PKIA FPKM,P+I,18.138 FPKM
same,PLAU FPKM,P+I,82.517 FPKM
same,PLEKHO1 FPKM,P+I,36.376 FPKM
same,PLK3 FPKM,P+I,7.036 FPKM
same,PMAIP1 FPKM,P+I,37.469 FPKM
same,PMEPA1 FPKM,P+I,2.393 FPKM
same,PODXL FPKM,P+I,1.509 FPKM
same,POU3F2 FPKM,P+I,0.696 FPKM
same,PPFIBP1 FPKM,P+I,12.117 FPKM
same,PPM1H FPKM,P+I,4.178 FPKM
same,PRKCA FPKM,P+I,11.132 FPKM
same,PTK2 FPKM,P+I,13.391 FPKM
same,PTPN22 FPKM,P+I,5.119 FPKM
same,PTPRE FPKM,P+I,14.28 FPKM
same,PWWP2B FPKM,P+I,3.446 FPKM
same,PXMP2 FPKM,P+I,7.334 FPKM
same,RAG1 FPKM,P+I,0.265 FPKM
same,RAG2 FPKM,P+I,0.385 FPKM
same,RAP1GAP2 FPKM,P+I,0.285 FPKM
same,RAP1GAP FPKM,P+I,1.799 FPKM
same,RDH10 FPKM,P+I,5.524 FPKM
same,REL FPKM,P+I,5.699 FPKM
same,RELB FPKM,P+I,40.689 FPKM
same,RGS3 FPKM,P+I,2.303 FPKM
same,RGS16 FPKM,P+I,5.595 FPKM
same,RMI1 FPKM,P+I,8.198 FPKM
same,RORB FPKM,P+I,3.292 FPKM
same,S1PR1 FPKM,P+I,0.461 FPKM
same,SAMD1 FPKM,P+I,12.809 FPKM
same,SECISBP2L FPKM,P+I,12.883 FPKM
same,SELPLG FPKM,P+I,3.724 FPKM
same,SEMA7A FPKM,P+I,34.623 FPKM
same,SERPINB2 FPKM,P+I,14.103 FPKM
same,SERPINE1 FPKM,P+I,4.431 FPKM
same,SH2B3 FPKM,P+I,14.803 FPKM
same,SH2D5 FPKM,P+I,3.557 FPKM
same,SH3BGRL3 FPKM,P+I,351.357 FPKM
same,SH3RF2 FPKM,P+I,32.15 FPKM
same,SHC4 FPKM,P+I,0.686 FPKM
same,SIT1 FPKM,P+I,34.287 FPKM
same,SIX6 FPKM,P+I,19.444 FPKM
same,SLC2A3 FPKM,P+I,40.147 FPKM
same,SLC2A4RG FPKM,P+I,2.168 FPKM
same,SLC7A5 FPKM,P+I,226.44 FPKM
same,SLC25A45 FPKM,P+I,2.626 FPKM
same,SLCO3A1 FPKM,P+I,3.095 FPKM
same,SLIT1 FPKM,P+I,2.815 FPKM
same,SMIM14 FPKM,P+I,3.572 FPKM
same,SOCS1 FPKM,P+I,11.547 FPKM
same,SOCS3 FPKM,P+I,9.392 FPKM
same,SOSTDC1 FPKM,P+I,7.34 FPKM
same,SPRY2 FPKM,P+I,17.876 FPKM
same,SREBF1 FPKM,P+I,12.747 FPKM
same,ST3GAL6-AS1 FPKM,P+I,8.479 FPKM
same,ST8SIA4 FPKM,P+I,8.921 FPKM
same,STARD4 FPKM,P+I,16.105 FPKM
same,STAT1 FPKM,P+I,527.58 FPKM
same,STAT5A FPKM,P+I,3.055 FPKM
same,STX11 FPKM,P+I,2.972 FPKM
same,SYTL1 FPKM,P+I,12.555 FPKM
same,TBC1D10C FPKM,P+I,15.764 FPKM
same,TBC1D20 FPKM,P+I,18.427 FPKM
same,TBX21 FPKM,P+I,39.746 FPKM
same,THY1 FPKM,P+I,3.297 FPKM
same,TIMP2 FPKM,P+I,1.952 FPKM
same,TM4SF1 FPKM,P+I,0.907 FPKM
same,TM7SF3 FPKM,P+I,25.052 FPKM
same,TMEM229B FPKM,P+I,7.747 FPKM
same,TMTC4 FPKM,P+I,3.005 FPKM
same,TNFRSF4 FPKM,P+I,11.916 FPKM
same,TNFRSF12A FPKM,P+I,6.523 FPKM
same,TNFRSF14 FPKM,P+I,12.09 FPKM
same,TNFSF9 FPKM,P+I,2.651 FPKM
same,TNRC6C FPKM,P+I,4.485 FPKM
same,TNS3 FPKM,P+I,1.418 FPKM
same,TRAF1 FPKM,P+I,24.962 FPKM
same,TRAT1 FPKM,P+I,5.507 FPKM
same,TRIM22 FPKM,P+I,3.316 FPKM
same,TSHR FPKM,P+I,1.574 FPKM
same,TSPAN2 FPKM,P+I,2.119 FPKM
same,TSPAN7 FPKM,P+I,42.604 FPKM
same,TTC28 FPKM,P+I,1.926 FPKM
same,TUBB2A FPKM,P+I,10.912 FPKM
same,TUBB3 FPKM,P+I,5.423 FPKM
same,UHRF1BP1L FPKM,P+I,7.889 FPKM
same,USP30-AS1 FPKM,P+I,9.017 FPKM
same,VANGL1 FPKM,P+I,8.842 FPKM
same,VASH2 FPKM,P+I,4.245 FPKM
same,VGF FPKM,P+I,54.294 FPKM
same,XAF1 FPKM,P+I,16.914 FPKM
same,XBP1 FPKM,P+I,48.525 FPKM
same,XYLB FPKM,P+I,2.311 FPKM
same,YBX2 FPKM,P+I,1.594 FPKM
same,ZC3H12A FPKM,P+I,17.547 FPKM
same,CD27 and CD70 expression,upon T-cell activation,inhibited CD27 and CD70
same,"RNA levels of representative T-cell activation markers (IL2, IL3, NFATC1, CCL4, CCL20, CXCL8)",upon T-cell activation,reduced RNA levels of representative T-cell activation markers
